# In publication PMC12022113 (Nature Communications, 2025):
# Entries after “also recorded” stand apart in the source; their conditions may differ.
# Assays:
# [1] = test system: OTR; details: cited from earlier work
# [2] = test system: V2R; details: cited from earlier work
# [3] = test system: V1aR; details: cited from earlier work
# [4] = biological target: V2R K116A mutant (Homo sapiens, UniProt P30518, K116A); format: binding
# [5] = test system: V2R; details: cited from earlier work; remark: listed apart in the source
# [6] = biological target: V2R Q174A mutant (Homo sapiens, UniProt P30518, Q174A); format: binding
# [7] = biological target: V2R Q119A mutant (Homo sapiens, UniProt P30518, Q119A); format: binding
# [8] = biological target: V2R S315A mutant (Homo sapiens, UniProt P30518, S315A); format: binding
# [9] = biological target: V2R R104A mutant (Homo sapiens, UniProt P30518, R104A); format: binding
# [10] = biological target: V2R F287A mutant (Homo sapiens, UniProt P30518, F287A); format: binding
# [11] = biological target: V2R E184A mutant (Homo sapiens, UniProt P30518, E184A); format: binding
# [12] = biological target: V2R Q291A mutant (Homo sapiens, UniProt P30518, Q291A); format: binding
# [13] = in vivo; cited from earlier work
# [14] = biological target: V2R D103A mutant (Homo sapiens, UniProt P30518, D103A); format: binding
# [15] = biological target: V2R I209A mutant (Homo sapiens, UniProt P30518, I209A); format: binding
smiles,measurement,setting,value
CC[C@H](C)[C@@H]1C(=O)N[C@H](C2Cc3ccccc3C2)C(=O)N1[C@@H](C(=O)N1CCOCC1)c1coc(C)n1 [Retosiban],OTR antagonism,[1],potent OTR-selective non-peptide antagonist
Cc1nc2c([nH]1)-c1ccccc1N(C(=O)c1ccc(NC(=O)c3ccccc3-c3ccccc3)cc1)CC2 [Conivaptan],selectivity to V2R,[2],not selective to V2R
same,affinity for V1aR,[3],high affinity
"Cc1ccccc1C(=O)Nc1ccc(C(=O)N2CCCC(O)c3cc(Cl)ccc32)c(C)c1 (centres unmarked) [TVP, 7-Chloro-5-hydroxy-1-[2-methyl-4-(2-methylbenzoylamino)benzoyl]-2,3,4,5-tetrahydro-1 H -1-benzazepine]",effect of mutation on affinity,[4],"moderate change in binding affinity; also recorded: less pronounced regarding TVP affinity, but was significant"
same,efficacy toward the Gs/cAMP pathway,[5],inverse agonist
same,inhibition of V2R-dependent signaling pathways,[5],inhibit V2R-dependent signaling pathways
same,effect of mutation on affinity,[6],significant decrease in TVP affinity
same,effect of mutation on affinity,[7],significant gain in affinity
same,effect of mutation (loss or gain vs WT),[8],less than 5 fold
same,effect of mutation on affinity,[8],very limited effect or were without effect
same,effect of mutation (loss or gain vs WT),[9],less than 5 fold
same,effect of mutation on affinity,[9],very limited effect or were without effect
same,affinity for V2R,[2],high affinity
same,effect of mutation on affinity,[10],moderate change in binding affinity
same,effect of mutation (loss or gain vs WT),[11],less than 5 fold
same,effect of mutation on affinity,[11],very limited effect or were without effect
same,effect of mutation (loss or gain vs WT),[12],less than 5 fold
same,effect of mutation on affinity,[12],moderate change in binding affinity
same,liver injury,[13],serious and potentially fatal liver injury
same,urine volume,[13],increasing the amount of urine volume
same,effect of mutation (loss or gain vs WT),[14],less than 5 fold
same,effect of mutation (loss or gain vs WT),[15],less than 5 fold
same,effect of mutation on affinity,[15],very limited effect or were without effect
